Data published in patent US5565478A (The United States of America as represented by the …, priority 1994, dated 1996).
Like-named read-outs stand apart in the source and are kept apart here.

What was measured:
[1] = at least; fixed dose 100 mg/m^2/d, by the 8th day of administration; read-out: plasma levels in humans; cited from earlier work
[2] = test system: nonvoltage-gated and voltage-gated calcium channels; conditions: cited from earlier work
[3] = test system: A2780-CP70 cells; experiment: Colony assay, compound 1 followed by paclitaxel; type: cell-based, human; conditions: compound 1 (0, 1 and 5 μM) 24 hr, then compound 3 (paclitaxel, 0 to 0.01 μM) 24 hr
Description: (§1) A2780-CP70 are a selected subline of A2780 which are stably resistant to cisplatin in the absence of continuous exposure. These cells were obtained from Robert Ozols, MD at the Fox Chase Cancer Center, Philadelphia, Pa., USA. These cells were cultured as described above.
(§2) Cells were incubated overnight in serum-containing medium, then washed once and treated with compound 1 (0, 1 and 5 μM). […] The resulting cells were washed once with PBS, treated with serum-containing media and incubated for 5 days. The cells were then fixed and stained with methylene blue in 40% methanol and the colonies were counted. FIGS. 2 and 3 show the results for the A2780 and A2780-CP70 cells, respectively. Data are presented as a percent of control (DMSO vehicle) growth.

[4] = test system: A2780 cells; experiment: Colony assay, compound 1 followed by paclitaxel; type: cell-based, human; conditions: compound 1 (0, 1 and 5 μM) 24 hr, then compound 3 (paclitaxel, 0 to 0.01 μM) 24 hr
Description: (§3) A2780 human ovarian cancer cells are available from the ATCC. The cells were cultured in RPMI 1640 with 10% FCS under standard conditions. See the ATCC catalog. The culture media contained penicillin and streptomycin and in some instances, insulin.
as §2

[5] = test system: phosphorylation events which are associated with receptor activation; conditions: cited from earlier work
[6] = 100 mg/m^2/day
[7] = test system: A2780-CP70 cells; experiment: Monolayer assay, compound 1 followed by paclitaxel; type: cell-based, human; conditions: compound 1 (5 μM) 24 hr, then paclitaxel (0 to 0.007 μM) 24 hr
Description: as §1
(§4) For each of the cell types, 50,000 cells were plated per well in 24-well tissue culture plates. One mL of medium was added to each well and the cells were incubated overnight at 37° C. The media was carefully aspirated away and media (1 mL) containing compound 1 (5 μM) or DMSO vehicle control was added to each well. After incubating the cells for 24 hr at 37° C., the media from each well was carefully aspirated away and each well was washed twice with serum-free media. […] After the incubation, the media was aspirated away and each well was washed twice with serum-free media. Serum-containing media was then added to each well and all plates were incubated for 4 days at 37° C. At the end of 4 days, the media was aspirated off and wells were fixed and stained with crystal violet in methanol. The wells were air dried and eluted with sodium citrate and ethanol. The optical density (OD) was determined for each of the well eluates at 540 nm. The percent relative growth was calculated by dividing the mean OD of identically treated wells by the OD of the control and multiplying by 100.

[8] = test system: production of arachidonic acid; conditions: cited from earlier work
[9] = test system: A2780-CP70 cells (cisplatin-resistant); experiment: Colony growth inhibition, 24 hr exposure; type: cell-based; conditions: Homo sapiens, colonies counted after 5 days
Description: as §1
(§5) Cells (500) were plated in 6-well plates and allowed to grow overnight. […] Controls were conducted by adding DMSO vehicle in complete media. […] After 5 days of incubation, the cells were washed once with PBS and then stained with methylene blue in 40% methanol for 20 min. The wells were rinsed gently with water and allowed to air dry. Colonies were counted by hand.

[10] = test system: A2780-CP70 cells; experiment: Colony assay, paclitaxel followed by compound 1; type: cell-based, human; conditions: paclitaxel (0.003 μM) 24 hr, then compound 1 (0 to 10 μM); cisplatin-resistant A2780-CP70
Description: as §1
The cells were again washed with PBS and treated with compound 1 (0 to 10 μM) for 24 hr, washed again with PBS and incubated for 5 days in drug-free media. The resulting cells were fixed, stained and the colonies were counted. Data are presented in FIGS. 4 and 5 as a percentage of control growth (DMSO treatment only).

[11] = clinical; conditions: human, plasma, 100 mg/m^2
[12] = Stability of compound 1 in PEG-400 solution; type: physicochemical; conditions: temperatures of up to 50° C.
Description: Compound 1 (NSC 609974) is available from the National Cancer Institute as a white powder. Preferably, it is dispensed as a 100 mg/mL solution in PEG-400. Compound 1 in PEG-400 solution is stable for at least 3 months at temperatures of up to 50° C. It is administered as a measured liquid dose daily for 8 days or more. It is recommended that patients take nothing by mouth for 3 hours prior to and 1 hour after taking the compound 1.

[13] = test system: A2780-CP70 cells; experiment: Colony assay, compound 1 in combination with carboplatin; type: cell-based, human
Description: as §1
(§6) Cells were incubated overnight in serum-containing medium, then washed once and treated with compound 1 (5 μM). After 24 hr, the cells were washed once with PBS and then treated with carboplatin (1 to ~200 μM) for an additional 24 hr. The resulting cells were washed once with PBS, treated with serum-containing media and incubated for 5 days. The cells were then fixed and stained with methylene blue in 40% methanol and the colonies were counted. […] Data are presented as a percent of control (DMSO vehicle) growth.

[14] = Toxicity of compound 1 in patients
[15] = test system: MDA 231 human breast cancer cells; experiment: Monolayer assay, compound 1 followed by paclitaxel; type: cell-based; conditions: compound 1 (5 μM) 24 hr, then paclitaxel (0 to 0.007 μM) 24 hr; MDA 231 monolayer
Description: MDA-231 hormone-resistant human breast cancer cells from ATCC were cultured in DMEM with 10% FCS and penicillin/streptomycin, under standard conditions.
as §4

[16] = humans, 100 mg/m^2/d; cited from earlier work
[17] = test system: A2780 cells; experiment: Colony assay, compound 1 in combination with carboplatin; type: cell-based, human
Description: as §3, §6

[18] = test system: A2780 human ovarian cancer cells; experiment: Colony growth inhibition, 24 hr exposure; type: cell-based; conditions: colonies counted after 5 days
Description: as §3, §5

[19] = both in vitro and in vivo; cited from earlier work
[20] = test system: A2780 cells; experiment: Monolayer assay, compound 1 followed by paclitaxel; type: cell-based, human; conditions: compound 1 (5 μM) 24 hr, then paclitaxel (0 to 0.007 μM) 24 hr
Description: as §3, §4

[21] = test system: voltage-gated L-type calcium channels in vascular smooth muscle cells; conditions: vascular smooth muscle cells under patch clamp; cited from earlier work
[22] = test system: receptor-mediated calcium entry (RMCE) in platelets, endothelial cells and neutrophils; conditions: cited from earlier work
[23] = cited from earlier work
[24] = test system: microtubule; conditions: cited from earlier work
[25] = test system: human tumors; conditions: clinical trials; cited from earlier work
[26] = test system: calcium levels in cells; conditions: cited from earlier work
[27] = in vitro; cited from earlier work
[28] = test system: paclitaxel-induced neutropenia; conditions: cited from earlier work
[29] = carboplatin first, then compound 1
[30] = compound 1 (5 μM) 24 hr, then carboplatin (1 to ~200 μM) 24 hr

Molecule: NC(=O)c1nnn(Cc2cc(Cl)c(C(=O)c3ccc(Cl)cc3)c(Cl)c2)c1N [Compound 1, 5-amino-1-(4-(4-chlorobenzoyl)-3,5-dichlorobenzyl)-1,2,3-triazole-4-carboxamide]
- concentration [1]: 1 to 5 µM
- inhibition of calcium uptake [2]: inhibitor of calcium uptake
- combination effect on growth [3]: supra-additive effect
- combination effect on growth [4]: supra-additive effect
- effect on phosphorylation events [5]: inhibits phosphorylation events
- usual plasma levels, plateau [6]: 3 to 4 µg/mL
- concentration ([6]; read-out: usual plasma levels, plateau (molar)): 5 to 10 µM
- combination effect on percent relative growth [7]: supra-additive effect
- effect on production of arachidonic acid [8]: alter production of arachidonic acid
- IC50 [9]: 9.5 µM
- combination effect on growth [10]: additive effect
- concentration at 192 h [11]: 1 to 5 µM
- stability in PEG-400 solution [12]: at least 3 months
- combination effect on growth, reversed sequence [13, 29]: sub-additive effect
- combination effect on growth [13, 30]: sub-additive effect
- common low-grade toxicities ([14]; human, in vivo): nausea and emesis
- uncommon toxicities ([14]; human, in vivo): mood changes (low-grade), peripheral neuropathy (mild to moderate) and neutropenia
- toxicity at dosing level ([14]; patients, 100 mg/m^2/day): no significant toxicity
- combination effect on percent relative growth [15]: supra-additive effect
- toxicity at fixed dose [16]: no significant toxicity
- combination effect on growth, reversed sequence [17, 29]: sub-additive effect
- combination effect on growth [17, 30]: sub-additive effect
- IC50 [18]: 3 µM
- single agent activity [19]: antiproliferative, anti-invasive, and anti-metastatic properties
- combination effect on percent relative growth [20]: supra-additive effect

Molecule: COc1ccc(CCCOC(Cn2ccnc2)c2ccc(OC)cc2)cc1 (stereo not drawn) [Compound 2]
- block of voltage-gated L-type calcium channels [21]: blocks voltage-gated L-type calcium channels
- inhibition of RMCE [22]: inhibits RMCE

Molecule: CC(=O)O[C@H]1C(=O)[C@@]2(C)[C@H]([C@H](OC(=O)c3ccccc3)[C@]3(O)C[C@H](OC(=O)[C@H](O)[C@@H](NC(=O)c4ccccc4)c4ccccc4)C(C)=C1C3(C)C)[C@]1(OC(C)=O)CO[C@@H]1C[C@@H]2O [Compound 3, Paclitaxel]
- dose at which dose limiting toxicity of peripheral neuropathy has been seen ([23]; paclitaxel infusion over 3-24 hours every 21 days): above 300 mg/m^2
- toxicities of paclitaxel ([23]; patients): nausea, emesis, diarrhea, neutropenia, thrombocytopenia, anemia, hair loss, myalgia, cardiac conduction abnormalities, hypersensitivity reactions, peripheral and autonomic neuropathy, mucositis
- effect on microtubule polymerization [24]: promotion of microtubule polymerization
- efficacy in human tumors [25]: demonstrated efficacy in several human tumors

Molecule: Clc1ccc(COC(Cn2ccnc2)c2ccc(Cl)cc2Cl)cc1 (stereo not drawn) [econazole]
- effect on calcium levels in cells [26]: effect calcium levels in cells

Molecule: OC(Cn1cncn1)(Cn1cncn1)c1ccc(F)cc1F [fluconazole]
- effect on calcium levels in cells [26]: effect calcium levels in cells

Molecule: CCC(C)n1ncn(-c2ccc(N3CCN(c4ccc(OCC5COC(Cn6cncn6)(c6ccc(Cl)cc6Cl)O5)cc4)CC3)cc2)c1=O (stereo not drawn) [itraconazole]
- effect on calcium levels in cells [26]: effect calcium levels in cells

Molecule: CC(=O)N1CCN(c2ccc(OCC3COC(Cn4ccnc4)(c4ccc(Cl)cc4Cl)O3)cc2)CC1 (stereo not drawn) [ketoconazole]
- effect on calcium levels in cells [26]: effect calcium levels in cells
- effect on activity of paclitaxel [27]: augment the activity of paclitaxel

Molecule: Clc1ccc(COC(Cn2ccnc2)c2ccc(Cl)cc2Cl)c(Cl)c1 (stereo not drawn) [miconazole]
- effect on calcium levels in cells [26]: effect calcium levels in cells

B1: G-CSF: cytokine which blunts paclitaxel-induced neutropenia; recombinant cytokine from Amgen (protein, UniProt P09919 31-207, looked up)
Granulocyte …: TPLGPASSLPQSFLLKCLEQVRKIQGDGAALQEKLVSECATYKLCHPEELVLLGHSLGIPWAPLSSCPSQALQLAGCLSQLHSGLFLYQGLLQALEGISPELGPTLDTLQLDVADFATTIWQQMEELGMAPALQPTQGAMPAFASAFQRRAGGVLVASHLQSFLEVSYRVLRHLAQP
modifications: filgrastim
notes: recombinant cytokine from Amgen
- maintenance of paclitaxel dose ([28]; G-CSF escalation up to 30 μg/kg/d, paclitaxel alone or with compound 1): associated with maintenance of the dose of paclitaxel
- effect on paclitaxel-induced neutropenia ([28]; in vivo): blunts paclitaxel-induced neutropenia
